Laboratory results: paper PMC9506485, “Synthesis and Structure–Activity Relationships for the Anti-Mycobacterial Activity of 3-Phenyl-N-(Pyridin-2-ylmethyl)Pyrazolo[1,5-a]Pyrimidin-7-Amines” (Pharmaceuticals, 2022)
Converted amounts (≈) assume the structure as drawn.

Assays:
[1] = test system: Mycobacterium tuberculosis (strain H37Rv); assay: MABA minimum inhibitory concentration assay (aerobic/replicating); format: cell-based; settings: M.tb H37Rv; for MIC90: Mycobacterium tuberculosis; for MIC90 / MIC90 MABA: aerobic/replicating, 90% inhibition of growth
[2] = test system: VERO green monkey kidney cells; assay: VERO mammalian cell toxicity assay; format: cell-based; settings: inhibition of growth of VERO green monkey kidney epithelial cells; for IC50: Chlorocebus sabaeus
[3] = test system: Mycobacterium tuberculosis (strain H37Rv); assay: LORA minimum inhibitory concentration assay (low-oxygen/non-replicating); settings: M.tb H37Rv, 90% inhibition of growth
[4] = Microsomal stability, human liver microsomes; format: in vitro ADME; settings: pH 7.4; for microsomal CLint at 1 μM: human liver microsomes, read-out: HLM Clint(mic)
Experimental: (§1) Assays were performed by WuXi AppTec (Shanghai) Co., Ltd. The test compounds (Table 4) (at 1 μM) were incubated at 37 °C with liver microsomes from human or CD-1 mice in the presence of a NADPH regenerating system and phosphate buffer (100 mM, pH 7.4) at 0.5 mg/mL microsomal protein (the positive controls were testosterone, propafenone, and diclofenac). Samples were removed at time intervals of 0, 5, 10, 20, 30, and 60 min and immediately mixed with cold CH3CN (containing 0.1 μg/mL of tolbutamide as an internal standard) and then centrifuged prior to analysis by LCMS/MS.

[5] = Microsomal stability, mouse liver microsomes; format: in vitro ADME; settings: for CLint scaled at 1 μM / half-life at 1 μM: CD-1, mouse, microsomes, pH 7.4; for microsomal CLint at 1 μM: CD-1, pH 7.4, mouse liver microsomes, read-out: MLM Clint(mic)
Experimental: as §1

[6] = human/mouse liver microsomes not distinguished, read-out: T½ values (microsomal stability)

| Molecule | MIC90 [1] [µg/mL] | IC50 [2] [µg/mL] | melting point [°C] | MIC90 LORA [3] [µg/mL] | further results |
| --- | --- | --- | --- | --- | --- |
| CN(C)c1cccc(CNc2cc(-c3ccccc3)nc3c(-c4ccc(F)cc4)cnn23)n1 [Compound 49, N-((6-(Dimethylamino)pyridin-2-yl)methyl)-3-(4-fluorophenyl)-5-phenylpyrazolo[1,5-a]pyrimidin-7-amine] | 1.39 (≈ 3.17 µM) | > 32 | 151 to 153 | 0.40 (≈ 0.912 µM) | – |
| CN(C)CCN(C)c1ccnc(CNc2cc(-c3ccccc3)nc3c(-c4ccc(F)cc4)cnn23)c1 [Compound 67, N1-(2-(((3-(4-Fluorophenyl)-5-phenylpyrazolo[1,5-a]pyrimidin-7-yl)amino)methyl)pyridin-4-yl)-N1,N2,N2-trimethylethane-1,2-diamine] | 1.7 (≈ 3.43 µM) | 9.9 (≈ 20 µM) | 158 to 160 | 1.5 (≈ 3.03 µM) | – |
| Cc1cccc(CNc2cc(-c3ccccc3)nc3c(-c4ccc(F)cc4)cnn23)n1 [Compound 47, 3-(4-Fluorophenyl)-N-((6-methylpyridin-2-yl)methyl)-5-phenylpyrazolo[1,5-a]pyrimidin-7-amine] | > 32 | > 32 | 177 to 180 | >32 | – |
| Fc1ccc(-c2cnn3c(NCc4ccccn4)cc(-c4ccc(C(F)(F)F)cc4)nc23)cc1 [Compound 37, 3-(4-Fluorophenyl)-N-(pyridin-2-ylmethyl)-5-(4-(trifluoromethyl)phenyl)pyrazolo[1,5-a]pyrimidin-7-amine] | 3.8 (≈ 8.2 µM) | > 32 | – | 3.6 (≈ 7.77 µM) | – |
| COc1ccccc1-c1cnn2c(NCc3ccccn3)cc(-c3ccccc3)nc12 [Compound 12, 3-(2-Methoxyphenyl)-5-phenyl-N-(pyridin-2-ylmethyl)pyrazolo[1,5-a]pyrimidin-7-amine] | > 32 | > 32 | 169 to 171 | >32 | – |
| C=Cc1cc(NCc2ccccn2)n2ncc(-c3ccc(F)cc3)c2n1 [Compound 24, 3-(4-Fluorophenyl)-N-(pyridin-2-ylmethyl)-5-vinylpyrazolo[1,5-a]pyrimidin-7-amine] | 1.48 (≈ 4.29 µM) | 17.2 (≈ 49.8 µM) | – | 0.47 (≈ 1.36 µM) | – |
| Fc1ccc(-c2cnn3c(NCc4ccccn4)cc(-c4ccco4)nc23)cc1 [Compound 43, 3-(4-Fluorophenyl)-5-(furan-2-yl)-N-(pyridin-2-ylmethyl)pyrazolo[1,5-a]pyrimidin-7-amine] | 0.96 (≈ 2.49 µM) | > 32 | – | <0.13 | – |
| FC(F)(F)c1cccc(-c2cnn3c(NCc4ccccn4)cc(-c4ccccc4)nc23)c1 [Compound 17, 5-Phenyl-N-(pyridin-2-ylmethyl)-3-(3-(trifluoromethyl)phenyl)pyrazolo[1,5-a]pyrimidin-7-amine] | > 32 | > 32 | 156 to 158 | >32 | – |
| N#Cc1ccnc(CNc2cc(-c3ccccc3)nc3c(-c4ccc(F)cc4)cnn23)c1 [Compound 61, 2-(((3-(4-Fluorophenyl)-5-phenylpyrazolo[1,5-a]pyrimidin-7-yl)amino)methyl)isonicotinonitrile] | > 32 | > 32 | 233 to 236 | >32 | anti-mycobacterial activity in words ([1]; MABA/LORA): inactive |
| Fc1ccc(-c2cnn3c(NCc4ccccn4)ccnc23)cc1 [Compound 22, 3-(4-Fluorophenyl)-N-(pyridin-2-ylmethyl)pyrazolo[1,5-a]pyrimidin-7-amine] | 0.89 (≈ 2.79 µM) | > 32 | – | 0.39 (≈ 1.22 µM) | – |
| CN1CCN(c2ccnc(CNc3cc(-c4ccccc4)nc4c(-c5ccc(F)cc5)cnn34)c2)CC1 [Compound 65, 3-(4-Fluorophenyl)-N-((4-(4-methylpiperazin-1-yl)pyridin-2-yl)methyl)-5-phenylpyrazolo[1,5-a]pyrimidin-7-amine] | 0.09 (≈ 0.182 µM) | 10.7 (≈ 21.7 µM) | 203 to 205 | 0.73 (≈ 1.48 µM) | – |
| Fc1ccc(-c2cnn3c(NCc4ccccn4)cc(C4=CCCCC4)nc23)cc1 [Compound 27, 5-(Cyclohex-1-en-1-yl)-3-(4-fluorophenyl)-N-(pyridin-2-ylmethyl)pyrazolo[1,5-a]pyrimidin-7-amine] | 0.62 (≈ 1.55 µM) | > 32 | – | 0.44 (≈ 1.1 µM) | CLint scaled at 1 μM ([4]; human, microsomes): 17 mL/min/kg; half-life at 1 μM ([4]; human, microsomes): 75 min; microsomal CLint at 1 μM [4]: 19 µL/min/mg; half-life at 1 μM [4, 6]: < 85 min; CLint scaled at 1 μM [5]: 120 mL/min/kg; half-life at 1 μM [5]: 49 min; microsomal CLint at 1 μM [5]: 30 µL/min/mg |
| Fc1ccc(-c2cnn3c(NCc4ncccc4F)cc(-c4ccccc4)nc23)cc1 [Compound 70, 3-(4-Fluorophenyl)-N-((3-fluoropyridin-2-yl)methyl)-5-phenylpyrazolo[1,5-a]pyrimidin-7-amine] | > 32 | > 32 | 165 to 168 | >32 | – |
| CN(C)CC#Cc1ccc(CNc2cc(-c3ccccc3)nc3c(-c4ccc(F)cc4)cnn23)nc1 [Compound 55, N-((5-(3-(Dimethylamino)prop-1-yn-1-yl)pyridin-2-yl)methyl)-3-(4-fluorophenyl)-5-phenylpyrazolo[1,5-a]pyrimidin-7-amine] | 1.9 (≈ 3.99 µM) | > 32 | – | 5.5 (≈ 11.5 µM) | CLint scaled at 1 μM ([4]; human, microsomes): < 8.6 mL/min/kg; half-life at 1 μM ([4]; human, microsomes): > 145 min; microsomal CLint at 1 μM [4]: < 9.6 µL/min/mg; CLint scaled at 1 μM [5]: 121 mL/min/kg; half-life at 1 μM [5]: 45.4 min; microsomal CLint at 1 μM [5]: 31 µL/min/mg |
| CN(C)CCCc1ccc(CNc2cc(-c3ccccc3)nc3c(-c4ccc(F)cc4)cnn23)nc1 [Compound 56, N-((5-(3-(dimethylamino)propyl)pyridin-2-yl)methyl)-3-(4-fluorophenyl)-5-phenylpyrazolo[1,5-a]pyrimidin-7-amine] | 5.8 (≈ 12.1 µM) | 20.3 (≈ 42.2 µM) | – | 6.1 (≈ 12.7 µM) | – |
| CN(C)CCOc1ccc(CNc2cc(-c3ccccc3)nc3c(-c4ccc(F)cc4)cnn23)nc1 [Compound 57, N-((5-(2-(Dimethylamino)ethoxy)pyridin-2-yl)methyl)-3-(4-fluorophenyl)-5-phenylpyrazolo[1,5-a]pyrimidin-7-amine] | 3.6 (≈ 7.46 µM) | 24 (≈ 49.7 µM) | – | 1.9 (≈ 3.94 µM) | – |
| COc1ccccc1-c1cc(NCc2ccccn2)n2ncc(-c3ccc(F)cc3)c2n1 [Compound 29, 3-(4-Fluorophenyl)-5-(2-methoxyphenyl)-N-(pyridin-2-ylmethyl)pyrazolo[1,5-a]pyrimidin-7-amine] | 13.3 (≈ 31.3 µM) | > 32 | – | 9.0 (≈ 21.2 µM) | – |
| N-((4-(2-(Dimethylamino)ethoxy)pyridin-2-yl)methyl)-3-(4-fluorophenyl)-5-phenylpyrazolo[1,5-a]pyrimidin-7-amine [Compound 58] | – | – | – | 4.1 | MIC90 MABA [1]: 4.7 µg/mL; IC50 VERO [2]: >32 µg/mL |
| Cc1ccc(-c2cc(NCc3ccccn3)n3ncc(-c4ccc(F)cc4)c3n2)cc1 [Compound 33, 3-(4-Fluorophenyl)-N-(pyridin-2-ylmethyl)-5-(p-tolyl)pyrazolo[1,5-a]pyrimidin-7-amine] | 3.7 (≈ 9.04 µM) | > 32 | – | 5.0 (≈ 12.2 µM) | – |
| 3-(4-Fluorophenyl)-N-((6-(4-methylpiperidin-1-yl)pyridin-2-yl)methyl)-5-phenylpyrazolo[1,5-a]pyrimidin-7-amine [Compound 51] | – | – | – | 0.85 | MIC90 MABA [1]: 0.94 µg/mL; IC50 VERO [2]: 11.8 µg/mL |
| Fc1ccc(-c2cc(NCc3ccccn3)n3ncc(-c4ccc(F)cc4)c3n2)cc1 [Compound 32, 3,5-Bis(4-fluorophenyl)-N-(pyridin-2-ylmethyl)pyrazolo[1,5-a]pyrimidin-7-amine] | 3 (≈ 7.26 µM) | > 32 | – | 0.22 (≈ 0.532 µM) | – |
| Fc1ccc(-c2cnn3c(NCc4ccccn4)cc(-c4ccncc4)nc23)cc1 [Compound 40, 3-(4-Fluorophenyl)-N-(pyridin-2-ylmethyl)-5-(pyridin-4-yl)pyrazolo[1,5-a]pyrimidin-7-amine] | > 32 | > 32 | – | 28 (≈ 70.6 µM) | – |
| Fc1ccc(-c2cnn3c(NCc4ccccn4)cc(C4=CCCC4)nc23)cc1 [Compound 26, 5-(Cyclopent-1-en-1-yl)-3-(4-fluorophenyl)-N-(pyridin-2-ylmethyl)pyrazolo[1,5-a]pyrimidin-7-amine] | 0.89 (≈ 2.31 µM) | > 32 | – | 0.23 (≈ 0.597 µM) | CLint scaled at 1 μM ([4]; human, microsomes): 32 mL/min/kg; half-life at 1 μM ([4]; human, microsomes): 39 min; microsomal CLint at 1 μM [4]: 35 µL/min/mg; half-life at 1 μM [4, 6]: < 85 min; CLint scaled at 1 μM [5]: 140 mL/min/kg; half-life at 1 μM [5]: 39 min; microsomal CLint at 1 μM [5]: 35 µL/min/mg |
| COc1cccc(-c2cc(NCc3ccccn3)n3ncc(-c4ccc(F)cc4)c3n2)c1 [Compound 31, 3-(4-Fluorophenyl)-5-(3-methoxyphenyl)-N-(pyridin-2-ylmethyl)pyrazolo[1,5-a]pyrimidin-7-amine] | 3.9 (≈ 9.17 µM) | > 32 | – | 1.7 (≈ 4 µM) | – |
